Experimental data reported in patent publication US20220411388A1, “SUBSTITUTED IMIDAZOLE CARBOXAMIDES AND THEIR USE IN THE TREATMENT OF MEDICAL DISORDERS” (Bial - R&D Investments, S.A., priority 2019, published 2022).
≈ marks a conversion by molar mass, not a printed value.

How the values were obtained:
[1] = Compound solubility in water; assay type: physicochemical
acid ceramidase (hACR) = target: T1, acid ceramidase (hACR) (Homo sapiens, UniProt Q13510); test: Acid ceramidase inhibition, biochemical fluorescent assay with cell lysates overexpressing acid ceramidase (substrate Rbm14-12); conditions: cell lysate, 1 hr preincubation at RT, pH 4.5, Rbm14-12 6.3 μM; read-out: IC50 hACR
T1 construct: expressed in transfected cells
T1 sequence (Q13510 22-395): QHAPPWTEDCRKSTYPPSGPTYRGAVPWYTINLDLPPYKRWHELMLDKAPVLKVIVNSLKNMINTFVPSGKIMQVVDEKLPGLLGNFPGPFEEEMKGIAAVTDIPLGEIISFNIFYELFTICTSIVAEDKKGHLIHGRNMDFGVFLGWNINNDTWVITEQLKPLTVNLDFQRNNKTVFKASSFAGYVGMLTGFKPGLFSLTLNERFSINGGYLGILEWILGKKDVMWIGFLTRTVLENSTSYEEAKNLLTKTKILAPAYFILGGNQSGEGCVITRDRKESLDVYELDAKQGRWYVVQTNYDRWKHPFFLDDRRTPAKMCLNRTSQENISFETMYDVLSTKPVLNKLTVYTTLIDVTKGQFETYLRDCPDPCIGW
Outline: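 Enzyme source was lysate from cells overexpressing acid ceramidase, 10 µg protein per reaction. Compounds were preincubated 1 h at RT in 25 mM NaAc, 100 mM NaCl, pH 4.5.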

SMILES | solubility [1] [µg/mL] | IC50 (acid ceramidase (hACR)) [nM] | Compound Solubility in Water [1] [µg/mL]
Cc1cn(C(=O)NCCC(C)C)c(Oc2ccccc2)n1 [Example 146, N-iso-Pentyl-4-methyl-2-phenoxy-1H-imidazole-1-carboxamide] | 19 (≈ 66.1 µM) | < 200 | 
Cc1cn(C(=O)NC2CC2)c(Oc2ccccc2)n1 [Example 147, N-Cyclopropyl-4-methyl-2-phenoxy-1H-imidazole-1-carboxamide] | 29 (≈ 113 µM) | < 200 | 
COc1nc(C)cn1C(=O)NC1CC1 [Example 148, N-Cyclopropyl-2-methoxy-4-methyl-1H-imidazole-1-carboxamide] | 23 (≈ 118 µM) | 200 to 1000 | 
Cc1cn(C(=O)NCCc2ccccc2)c(OC(C)C)n1 [Example 149, 2-iso-Propoxy-4-methyl-N-phenethyl-1H-imidazole-1-carboxamide] | 21 (≈ 73.1 µM) | < 200 | 
Cc1cnc(OC(C)C)n1C(=O)NCCc1ccccc1 [Example 150, 2-iso-Propoxy-5-methyl-N-phenethyl-1H-imidazole-1-carboxamide] | 5 (≈ 17.4 µM) | < 200 | 
COc1nc(C)cn1C(=O)NC1CCC(F)(F)CC1 [Example 152, N-(4,4-difluorocyclohexyl)-2-methoxy-4-methyl-1H-imidazole-1-carboxamide] | 30 (≈ 110 µM) | > 1000 | 
COc1nc(C)cn1C(=O)NC1CCCC(F)(F)C1 (stereo not drawn) [Example 153, N-(3,3-difluorocyclohexyl)-2-methoxy-4-methyl-1H-imidazole-1-carboxamide] | 29 (≈ 106 µM) | > 1000 | 
COc1nc(C)cn1C(=O)NCCCCc1ccccc1 [Example 156, 2-Methoxy-4-methyl-N-(4-phenylbutyl)-1H-imidazole-1-carboxamide] | 23 (≈ 80 µM) | < 200 | 
COc1nc(-c2ccccc2)cn1C(=O)NC1CCCC(F)(F)C1 (stereo not drawn) [Example 158, N-(3,3-Difluorocyclohexyl)-2-methoxy-4-phenyl-1H-imidazole-1-carboxamide] | 1 (≈ 2.98 µM) | 200 to 1000 | 
COc1nc(C)cn1C(=O)NCCC(C)C [Example 160, N-iso-Pentyl-2-methoxy-4-methyl-1H-imidazole-1-carboxamide] |  | < 200 | 13
Cc1cn(C(=O)NC2CCC(F)(F)CC2)c(Oc2cccc(C3CN(C)C3)c2)n1 [Example 162, N-(4,4-Difluorocyclohexyl)-4-methyl-2-(3-(1-methylazetidin-3-yl)phenoxy)-1H-imidazole-1-carboxamide] | 17 (≈ 42 µM) | 200 to 1000 | 
Cc1cn(C(=O)NC2CCC(F)(F)CC2)c(Oc2cccc(C#N)c2)n1 [Example 164, 2-(3-Cyanophenoxy)-N-(4,4-difluorocyclohexyl)-4-methyl-1H-imidazole-1-carboxamide] | 8 (≈ 22.2 µM) | < 200 | 
COc1nc(C)cn1C(=O)NCCC1CC(F)(F)C1 [Example 166, N-(2-(3,3-Difluorocyclobutyl)ethyl)-2-methoxy-4-methyl-1H-imidazole-1-carboxamide] | 30 (≈ 110 µM) | 200 to 1000 | 
COc1nc(C)cn1C(=O)NCCC1CCCC1(F)F (stereo not drawn) [Example 167, N-(2-(2,2-Difluorocyclopentyl)ethyl)-2-methoxy-4-methyl-1H-imidazole-1-carboxamide] | 32 (≈ 111 µM) | < 200 | 
COc1nc(Cl)cn1C(=O)NCCCC(F)(F)F [Example 168, 4-Chloro-2-methoxy-N-(4,4,4-trifluorobutyl)-1H-imidazole-1-carboxamide] | 34 (≈ 119 µM) | < 200 | 
COc1nc(C)c(C)n1C(=O)NCCc1ccccc1 [Example 170, 2-Methoxy-4,5-dimethyl-N-phenethyl-1H-imidazole-1-carboxamide] | 10 (≈ 36.6 µM) | < 200 | 
CN1CCC(c2cn(C(=O)NCCCC3(C(F)(F)F)CC3)cn2)CC1 [Example 174, 4-(1-Methylpiperidin-4-yl)-N-(3-(1-(trifluoromethyl)cyclopropyl)propyl)-1H-imidazole-1-carboxamide] | 25 (≈ 69.8 µM) | < 200 | 
O=C(NCCCC(F)(F)F)n1ccnc1Oc1ccccc1 [Example 178, 2-Phenoxy-N-(4,4,4-trifluorobutyl)-1H-imidazole-1-carboxamide] | 32 (≈ 102 µM) | < 200 | 

The remaining lines, values ahead:

solubility [1] [µg/mL] | IC50 (acid ceramidase (hACR)) [nM] | Compound Solubility in Water [1] [µg/mL] | SMILES
28 (≈ 91.7 µM) | < 200 |  | COc1nc(C)cn1C(=O)NCCCC1(C(F)(F)F)CC1 [Example 145, 2-Methoxy-4-methyl-N-(3-(1-(trifluoromethyl)cyclopropyl)propyl)-1H-imidazole-1-carboxamide]
30 (≈ 107 µM) | 200 to 1000 |  | COc1nc(C)cn1C(=O)NCCCOC(F)(F)F [Example 151, 2-Methoxy-4-methyl-N-(3-(trifluoromethoxy)-propyl)-1H-imidazole-1-carboxamide]
30 (≈ 104 µM) | 200 to 1000 |  | COc1nc(C)cn1C(=O)NCCC1CCC(F)(F)C1 (stereo not drawn) [Example 154, N-(2-(3,3-Difluorocyclopentyl)ethyl)-2-methoxy-4-methyl-1H-imidazole-1-carboxamide]
22 (≈ 68.9 µM) | < 200 |  | COc1nc(C)cn1C(=O)NCCCCC1(C(F)(F)F)CC1 [Example 155, 2-Methoxy-4-methyl-N-(4-(1-(trifluoromethyl)-cyclopropyl)butyl)-1H-imidazole-1-carboxamide]
1 (≈ 2.98 µM) | 200 to 1000 |  | COc1nc(-c2ccccc2)cn1C(=O)NC1CCC(F)(F)CC1 [Example 157, N-(4,4-Difluorocyclohexyl)-2-methoxy-4-phenyl-1H-imidazole-1-carboxamide]
35 (≈ 97.6 µM) | < 200 |  | Cc1cn(C(=O)NCCc2ccccc2)c(OCCN2CCOCC2)n1 [Example 159, 4-Methyl-2-(2-morpholinoethoxy)-N-phenethyl-1H-imidazole-1-carboxamide]
13 (≈ 36.1 µM) | < 200 |  | Cc1cn(C(=O)NC2CCC(F)(F)CC2)c(Oc2ccc(C#N)cc2)n1 [Example 163, 2-(4-Cyanophenoxy)-N-(4,4-difluorocyclohexyl)-4-methyl-1H-imidazole-1-carboxamide]
21 (≈ 49.9 µM) | < 200 |  | Cc1cn(C(=O)NC2CCC(F)(F)CC2)c(Oc2ccc(N3CCOCC3)cc2)n1 [Example 165, N-(4,4-Difluorocyclohexyl)-4-methyl-2-(4-morpholinophenoxy)-1H-imidazole-1-carboxamide]
24 (≈ 73.3 µM) | < 200 |  | Cc1cn(C(=O)NCCCC(F)(F)F)c(Oc2ccccc2)n1 [Example 171, 4-Methyl-2-phenoxy-N-(4,4,4-trifluorobutyl)-1H-imidazole-1-carboxamide]
4 (≈ 11.9 µM) | < 200 |  | Cc1cn(C(=O)NC2CCC(F)(F)CC2)c(Oc2ccccc2)n1 [Example 172, N-(4,4-Difluorocyclohexyl)-4-methyl-2-phenoxy-1H-imidazole-1-carboxamide]
1 (≈ 2.37 µM) | < 200 |  | O=C(NCCCC1(C(F)(F)F)CC1)n1cnc(-c2cccnc2N2CCCCC2)c1 [Example 175, 4-(2-(Piperidin-1-yl)pyridin-3-yl)-N-(3-(1-(trifluoromethyl)cyclopropyl)propyl)-1H-imidazole-1-carboxamide]
8 (≈ 22.6 µM) | < 200 |  | O=C(NCCCC1(C(F)(F)F)CC1)n1ccnc1Oc1ccccc1 [Example 177, 2-Phenoxy-N-(3-(1-(trifluoromethyl)cyclopropyl)propyl)-1H-imidazole-1-carboxamide]
